Assay results from patent US6498155B1, “Methods of treating thrombocytopenia” (SmithKline Beecham Corporation, priority 1998, dated 2002).

Columns and labels:
[1] = tested on: 32D-mpl cells; conditions: concentration 1-30 uM
Description: (§1) 32D-mpl cells express Tpo-R and their survival is dependent on the presence of TPO. […] In this assay, purified human CD34+ progenitor cells were incubated in liquid culture with test compounds for 10 days and the number of cells expressing the transmembrane glycoprotein CD41 (gpIIb), a megakaryocytic marker, was then measured by flow cytometry (see Cwirla, S. E. et al Science, 1997, 276, 1696-1699).

[2] = tested on: purified human CD34+ progenitor cells; conditions: concentrations 1-30 uM; 10 days liquid culture, CD41 by flow cytometry
Description: as §1

Cl.Cl.Cl.Cl.Cl.Cl.Cl.Cl.O.O.c1cc(CN2CCCNCCNCCCNCC2)ccc1CN1CCCNCCNCCCNCC1 [Example 1, 1,1′-[1,4-Phenylenebis(methylene)]bis[1,4.8,11-tetraazacyclotetradecane]octahydrochloride Dihydrate]
proliferation of 32D-mpl cells [1]: promoted the proliferation
activity in the CD41 megakaryocytic assay [2]: showed activity
